# Assay results: US8377974B2 (Millennium Pharmaceuticals, Inc., priority 2004, dated 2013)
# Molecular target: T1, human plasma protein factor Xa (Homo sapiens, UniProt P00742)
# T1 construct: measure proteolytic activity of the enzyme (factor Xa); purchased Haematologic Technologies (Essex Junction, Vt.); host or cells: human plasma
# Test: Factor Xa IC50 determination: cleavage of paranitroanilide substrate S-2765 in 96-well plates
# Type: biochemical
# Conditions: fXa 1 nM, S-2765 100 μM, Tris buffered saline pH 7.4, room temperature
# Source text: This example illustrates methods for evaluating the compounds of the invention, along with results obtained for such assays. The in vitro and in vivo Factor Xa isoform activities of the inventive compounds can be determined by various procedures known in the art, such as a test for their ability to inhibit the activity of the Factor Xa isoform. […] The IC50 value is the concentration (in nM) of the compound required to provide 50% inhibition of Factor Xa isoform.
# An in vitro assay for detecting and measuring inhibition activity against Factor Xa is as follows:
# The substrate S-2765 (Z-D-Arg-Gly-Arg-pNA.HCl) was obtained from Diapharma (West Chester, Ohio).
# The human plasma protein factor Xa was purchased from Haematologic Technologies (Essex Junction, Vt.).
# All assays, which are performed in 96-well microtiter plates, measure proteolytic activity of the enzyme (factor Xa) by following cleavage of paranitroanilide substrate. The assay buffer used for proteolytic assays was Tris buffered saline (20 mM Tris, 150 mM NaCl, 5 mM CaCl2, 0.1% Bovine serum albumin (BSA), 5% Dimethly Sulfoxide (DMSO) pH 7.4). In a 96-well microtiter plate, inhibitor was serially diluted to give a range of concentrations from 0.01 nM to 10 μM (final). Duplicate sets of wells were assayed and control wells without inhibitor were included. Enzyme was added to each well, (fXa concentration=1 nM), the plate was shaken for 5 seconds and then incubated for 5 minutes at room temperature. S2765 was added (100 μM final) and the plate was shaken for 5 seconds (final liquid volume in each well was 200 μl). The degree of substrate hydrolysis was measured at 405 nm on a Thermomax plate reader (Molecular Devices, Sunnyvale, Calif.) for 2 minutes. The initial velocities (mOD/min), for each range of inhibitor concentrations, were fitted to a four parameter equation using Softmax data analysis software. The parameter C, derived from the resulting curve-fit, corresponded to the concentration for half maximal inhibition (IC50).
# T1 sequence (P00742 235-488 limits assumed): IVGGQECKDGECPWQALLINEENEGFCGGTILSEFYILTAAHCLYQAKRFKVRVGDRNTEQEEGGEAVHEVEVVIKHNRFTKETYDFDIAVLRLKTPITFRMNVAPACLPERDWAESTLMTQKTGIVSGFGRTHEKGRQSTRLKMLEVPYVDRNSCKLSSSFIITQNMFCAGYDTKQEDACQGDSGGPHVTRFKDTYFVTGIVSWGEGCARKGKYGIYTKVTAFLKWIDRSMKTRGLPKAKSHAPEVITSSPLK
# T1 sequence (P00742 41-179 partner limits assumed): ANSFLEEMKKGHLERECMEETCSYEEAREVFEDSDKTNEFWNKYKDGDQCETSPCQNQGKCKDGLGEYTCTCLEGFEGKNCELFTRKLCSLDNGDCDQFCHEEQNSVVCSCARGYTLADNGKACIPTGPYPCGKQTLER
row,IC50 [nM],Structure (SMILES)
1,≥ 500,"CCN1CCC(c2cc(CNC(=O)c3ccc(Cl)s3)on2)CC1 [Example 177, 5-Chloro-thiophene-2-carboxylic acid [3-(1-ethyl-piperidin-4-yl)-isoxazol-5-ylmethyl]-amide]"
2,≤ 100,"O=C(NCc1cc(-c2ccc(-c3ccncc3)cc2)no1)c1ccc(Cl)s1 [Example 193, 5-Chloro-thiophene-2-carboxylic acid [3-(4-pyridin-4-yl-phenyl)-isoxazol-5-ylmethyl]-amide]"
3,≤ 100,"CN1CCN=C1c1ccc(-c2cc(CNC(=O)c3ccc(Cl)s3)on2)c(Oc2ccccc2)c1 [Example 131, 5-Chloro-thiophene-2-carboxylic acid {3-[4-(1-methyl-4,5-dihydro-1H-imidazol-2-yl)-2-phenoxy-phenyl]-isoxazol-5-ylmethyl}-amide]"
4,≥ 500,"CSc1cc(C(=N)N2CCCCC2)ccc1-c1cc(CNC(=O)c2ccc(Cl)s2)on1 [Example 143, 5-Chloro-thiophene-2-carboxylic acid {3-[4-(imino-piperidin-1-yl-methyl)-2-methylsulfanyl-phenyl]-isoxazol-5-ylmethyl}-amide]"
5,≤ 100,"COc1ccc(-c2ccc(-c3cc(CNC(=O)c4ccc(Cl)s4)on3)cc2)c(CN(C)C)c1 [Example 217, 5-Chloro-thiophene-2-carboxylic acid [3-(2′-dimethylaminomethyl-4′-methoxy-biphenyl-4-yl)-isoxazol-5-ylmethyl]-amide]"
6,≤ 100,"O=C(NCC1CC(c2ccc(-n3ccccc3=O)cc2)=NO1)c1ccc(Cl)s1 (stereo not drawn) [Example 278, 5-Chloro-N-((3-(4-(2-oxopyridin-1(2H)-yl)phenyl)-4,5-dihydroisoxazol-5-yl)methyl)thiophene-2-carboxamide]"
7,100 to 500,"O=C(NCc1cn(-c2ccc(N3CCNCC3)nc2)nn1)c1ccc(Cl)s1 [Example 390, 5-Chloro-N-((1-(6-(piperazin-1-yl)pyridin-3-yl)-1H-1,2,3-triazol-4-yl)methyl)thiophene-2-carboxamide]"
8,≥ 500,"COc1ccc(-c2ccc(C3=NOC(CNC(=O)c4ccc(Cl)s4)C3)cc2)c(CO)c1 (stereo not drawn) [Example 207, 5-Chloro-thiophene-2-carboxylic acid [3-(2′-hydroxymethyl-4′-methoxy-biphenyl-4-yl)-4,5-dihydro-isoxazol-5-ylmethyl]-amide]"
9,≥ 500,"O=C(NCC1CC(c2ccc(-c3ccccc3Cl)cc2)=NO1)c1ccc(Cl)s1 (stereo not drawn) [Example 184, 5-Chloro-thiophene-2-carboxylic acid [3-(2′-chloro-biphenyl-4-yl)-4,5-dihydro-isoxazol-5-ylmethyl]-amide]"
10,≤ 100,"O=C(NCc1cn(-c2ccc(-n3cccc(F)c3=O)cc2)nn1)c1ccc(Cl)s1 [Example 291, 5-Chloro-N-((1-(4-(3-fluoro-2-oxopyridin-1(2H)-yl)phenyl)-1H-1,2,3-triazol-4-yl)methyl)thiophene-2-carboxamide]"
11,≤ 100,"CSc1cc(C(=N)N(C)C)ccc1C1=NOC(CNC(=O)c2ccc(Cl)s2)C1 (stereo not drawn) [Example 136, 5-Chloro-thiophene-2-carboxylic acid {3-[4-(N,N-dimethyl-carbamimidoyl)-2-methylsulfanyl-phenyl]-4,5-dihydro-isoxazol-5-ylmethyl}-amide]"
12,≥ 500,"O=C(NCC1CC(c2ccc(NCc3ccccc3)cc2)=NO1)c1ccc(Cl)s1 (stereo not drawn) [Example 221, 5-Chloro-thiophene-2-carboxylic acid [3-(4-benzylamino-phenyl)-4,5-dihydro-isoxazol-5-ylmethyl]-amide]"
13,≥ 500,"CC(=N)N1CCC(C2=NOC(CNC(=O)c3ccc(Cl)s3)C2)CC1 (stereo not drawn) [Example 173, 5-Chloro-thiophene-2-carboxylic acid {3-[1-(1-imino-ethyl)-piperidin-4-yl]-4,5-dihydro-isoxazol-5-ylmethyl}-amide]"
14,≥ 500,"COC(=O)c1cccc(Nc2ccc(C3=NOC(CNC(=O)c4ccc(Cl)s4)C3)cc2)c1 (stereo not drawn) [Example 261, 3-[4-(5-{[(5-Chloro-thiophene-2-carbonyl)-amino]-methyl}-4,5-dihydro-isoxazol-3-yl)-phenylamino]-benzoic acid methyl ester]"
15,≥ 500,"COC(=O)c1ccc(C2=NOC(CNC(=O)c3ccc(Cl)s3)C2)cc1 (stereo not drawn) [Example 156, 4-(5-{[(5-Chloro-thiophene-2-carbonyl)-amino]-methyl}-4,5-dihydro-isoxazol-3-yl)-benzoic acid methyl ester]"
16,≤ 100,"COc1cc(C2=NCCN2C)ccc1C1=NOC(CNC(=O)c2ccc(Cl)s2)C1 (stereo not drawn) [Example 103, 5-Chloro-thiophene-2-carboxylic acid {3-[2-methoxy-4-(1-methyl-4,5-dihydro-1H-imidazol-2-yl)-phenyl]-4,5-dihydro-isoxazol-5-ylmethyl}-amide]"

# The next lines start with the molecule.
row,Structure (SMILES),IC50 [nM]
1,"O=C(NCC1CC(c2ccc(Nc3ccncc3)cc2F)=NO1)c1ccc(Cl)s1 (stereo not drawn) [Example 247, 5-Chloro-thiophene-2-carboxylic acid {3-[2-fluoro-4-(pyridin-4-ylamino)-phenyl]-4,5-dihydro-isoxazol-5-ylmethyl}-amide]",≤ 100
2,"CSc1cc(C2=NCCN2C)ccc1C1=NOC(CNC(=O)c2ccc(Cl)s2)C1 (stereo not drawn) [Example 137, 5-Chloro-thiophene-2-carboxylic acid {3-[4-(1-methyl-4,5-dihydro-1H-imidazol-2-yl)-2-methylsulfanyl-phenyl]-4,5-dihydro-isoxazol-5-ylmethyl}-amide]",≤ 100
3,"CN(C)C(=N)c1ccc(C2=NOC(CNC(=O)c3ccc(Cl)s3)C2)c(OC2CCCCC2)c1 (stereo not drawn) [Example 115, 5-Chloro-thiophene-2-carboxylic acid {3-[2-cyclohexyloxy-4-(N,N-dimethyl-carbamimidoyl)-phenyl]-4,5-dihydro-isoxazol-5-ylmethyl}-amide]",≤ 100
4,"O=C(NCC1CC(C2CCN(Cc3ccccc3)CC2)=NO1)c1ccc(Cl)s1 (stereo not drawn) [Example 170, 5-Chloro-thiophene-2-carboxylic acid [3-(1-benzyl-piperidin-4-yl)-4,5-dihydro-isoxazol-5-ylmethyl]-amide]",≥ 500
5,"CC(O)CNC(=O)c1ccc(C2=NOC(CNC(=O)c3ccc(Cl)s3)C2)cc1 (stereo not drawn) [Example 399, N-((3-(4-((2-Hydroxypropyl)carbamoyl)phenyl)-4,5-dihydroisoxazol-5-yl)methyl)-5-chlorothiophene-2-carboxamide]",≥ 500
6,"O=C(NCc1cn(-c2ccc(N3CCSCC3=O)cc2)nn1)c1ccc(Cl)s1 [Example 302, 5-Chloro-N-((1-(4-(3-oxothiomorpholino)phenyl)-1H-1,2,3-triazol-4-yl)methyl)thiophene-2-carboxamide]",≤ 100
7,"C[C@@H](NC(=O)c1ccc(Cl)s1)c1cc(-c2ccc(C(=N)N3CCCCC3)cc2)no1 [Example 52, (R)-5-Chloro-thiophene-2-carboxylic acid (1-{3-[4-(imino-piperidin-1-yl-methyl)-phenyl]-isoxazol-5-yl}-ethyl)-amide]",≥ 500
8,"N=C(c1ccc(-c2nc(CNC(=O)c3ccc(Cl)s3)co2)cc1)N1CCCCC1 [Example 341, 5-Chloro-N-((2-(4-(imino(piperidin-1-yl)methyl)phenyl)oxazol-4-yl)methyl)thiophene-2-carboxamide]",≤ 100
9,"CNC(=N)c1ccc(-c2cc(CNC(=O)c3ccc(Cl)s3)on2)cc1 [Example 34, 5-Chloro-thiophene-2-carboxylic acid {3-[4-(N-methylcarbamimidoyl)-phenyl]-isoxazol-5-ylmethyl}-amide]",≥ 500
10,"CN(C)Cc1ccc(-c2cccc(-c3cc(CNC(=O)c4ccc(Cl)s4)on3)c2)cc1 [Example 272, 5-Chloro-thiophene-2-carboxylic acid [3-(4′-dimethylaminomethyl-biphenyl-3-yl)-isoxazol-5-ylmethyl]-amide]",≥ 500
11,"O=C(NCC1CC(c2cccc(-c3cccnc3)c2)=NO1)c1ccc(Cl)s1 (stereo not drawn) [Example 274, 5-Chloro-thiophene-2-carboxylic acid [3-(3-pyridin-3-yl-phenyl)-4,5-dihydro-isoxazol-5-ylmethyl]-amide]",≥ 500
12,"O=C(NCc1cn(-c2ccc(N3CCCOCC3)nc2)nn1)c1ccc(Cl)s1 [Example 385, N-((1-(6-(1,4-Oxazepan-4-yl)pyridin-3-yl)-1H-1,2,3-triazol-4-yl)methyl)-5-chlorothiophene-2-carboxamide]",100 to 500
13,"CN(C)c1cc(C(=N)N2CCCCC2)ccc1-c1cc(CNC(=O)c2ccc(Cl)s2)on1 [Example 97, 5-Chloro-thiophene-2-carboxylic acid {3-[2-dimethylamino-4-(imino-piperidin-1-yl-methyl)-phenyl]-isoxazol-5-ylmethyl}-amide]",≤ 100
14,"CN(C)C(=N)c1ccc(C2=NOC(CNC(=O)c3ccc(Cl)s3)C2)cc1 (stereo not drawn) [Example 8, 5-Chloro-thiophene-2-carboxylic acid {3-[4-(N,N-dimethyl-carbamimidoyl)-phenyl]-4,5-dihydro-isoxazol-5-ylmethyl}-amide]",≤ 100
